Peptide text beside a SMILES is read from it. * marks the point of attachment. Cbz = O=C(OCc1ccccc1)*
What was measured:
Format in all cases: cell-based
[1] = system: HEK293 cells which expressed the exon 7, i.e. the G1195A, mutation (G399S) of Omi/HtrA2; assay: Cytotoxicity test (LDH release) using staurosporin; conditions: 0.5 μM staurosporin, 6 hours; G399S cells vs wild-type HEK293 cells; FIG. 7
Procedure: (§1) In order to analyze the pathogenetic relevance of the two mutations found in the Omi/HtrA2 gene, the cytotoxicity test was used to investigate whether cells which express the correspondingly genetically modified Omi/HtrA2 protein are more sensitive to cytotoxins, i.e. undergo apoptosis more frequently with corresponding exposure.
(§2) This test was carried out using the cytotoxicity detection kit (LDH) supplied by Roche. The measure of apoptosis used in this case is the lactate dehydrogenase (LDH) released from the cytosol of the apoptotic cells into the surrounding medium after contact with the toxins. This LDH in turn is determined via conversion of a tetrazolium salt into formazan, which can be measured through a change in color from yellow (tetrazolium salt) to red (formazan) using an ELISA reader at a wavelength of 490 nm. The absorption at 650 nm is measured as reference comparison. […]
(§3) In order to detect the total amount of LDH, which is related to the total number of cells per well, then 50 μl of 10% Triton X-100 solution were pipetted into each well in order to lyse the cells which were still alive. […] 100 μl of LDH assay medium were then put in each well to be measured of the 96-well plate and incubated at room temperature for 20 minutes.
(§4) After this incubation time had elapsed, the reaction was stopped by adding 50 μl of 1 N HCl (Sigma) and measured using the ELISA reader. […]

[2] = system: SH-SY5Y cells which stably express mutated (S141 or S399) Omi/HtrA2; assay: Mitochondrion function test: mitochondrial membrane potential by JC-1 FACS analysis; conditions: 0.5 μM staurosporin, 4 hours, FIG. 9
Procedure: The mitochondrial membrane potential was measured by FACS analysis (flow cytometer) using JC-1, as marker of mitochondrial homeostasis in SH-SY5Y cells which stably express the wild-type or mutated (S141 or S399) Omi/HtrA2.
JC-1 is a green fluorescent dye which can be employed to measure the mitochondrial membrane potential. It has the property of diffusing through cellular membranes and is moreover in the form of a monomer which fluoresces green on excitation with a 488 nm laser. In intact mitochondria there is accumulation of the dye owing to the mitochondrial membrane potential, and thus JC-1 aggregates form. The aggregate now re-emits in a red fluorescent wavelength the excitation light and can thus be clearly distinguished both under a microscope and in a flow cytometer from the green fluorescent monomers. […]
In order to differentiate the cell population between green and red fluorescence and to make the adjustment in the flow cytometer, cells without JC-1, with JC-1 and cells with JC-1 treated with CCCP were used. […] It was thus possible after the staining readily to excite only the green fluorescence of the JC-1 monomers, owing to treatment with CCCP. After adjustment of the assay in the flow cytometer, the samples were then measured and evaluated. […]

[3] = system: HEK293 cells which expressed the exon 1, i.e. G421T, mutation (A141S) of Omi/HtrA2; assay: Cytotoxicity test (LDH release) using MG132; conditions: 3.0 μM MG132, 24 hours; A141S cells vs wild-type HEK293 cells; FIG. 8
Procedure: as §1, §2, §3, §4

Structure (SMILES) | sensitivity to staurosporin relative to wild-type HEK293 cells (LDH release, proportion of dead cells) [1] | decline in the mitochondrial membrane potential (ΔΨm loss) compared with wild-type cells ([2]; Omi/HtrA2 S141 cells) | decline in the mitochondrial membrane potential (ΔΨm loss) compared with wild-type cells ([2]; Omi/HtrA2 S399 cells) | sensitivity to MG132 relative to wild-type HEK293 cells (LDH release, proportion of dead cells) [3]
CN[C@@H]1C[C@H]2O[C@@](C)([C@@H]1OC)n1c3ccccc3c3c4c(c5c6ccccc6n2c5c31)C(=O)NC4 [staurosporin] | more than five times more sensitive | distinct decline in the mitochondrial membrane potential | distinct decline in the mitochondrial membrane potential | 
CC(C)C[C@@H](C=O)NC(=O)[C@H](CC(C)C)NC(=O)[C@H](CC(C)C)NC(=O)OCc1ccccc1 [MG132] (Cbz-Leu-Leu-Leu-aldehyde) |  |  |  | approximately 1.4 times

Source: patent US20070031872A1, “A141S and G399S mutation in the Omi/HtrA2 protein in Parkinson's disease” (priority 2004, published 2007)
